From patent publication US6114572A, “Substituted phenols and thiophenols useful as antioxidant agents” (priority 1997, dated 2000)
Where two headings read alike, the source gives them in different places.

Key:
[1] = HPLC quantitation of compound and metabolite concentration in rat serum and liver; conditions: in vivo; for Liver Bis (bisphenol concentration) / Liver Parent (parent compound concentration) / Liver Quin (diphenoquinone concentration) / Serum Bis (bisphenol concentration) / Serum Quin (diphenoquinone concentration): 5760 min; for concentration at 96 h: po, 0.3% in diet, 4 days
From the text: (§1) A typical experiment consists of 4-6 groups of rats (N=5 per group) with 1 group being a control which receives no MDL compound and the other groups being treated with 0.3% MDL compound. Some of the compounds are either repeated at 0.3% or evaluated again at the lower dose of 0.1%. House Male Sprague-Dawley rats, 50-100 g, (Harlan Laboratories, Indianapolis, Ind.) in groups of 5, feeding ad libitum water and Purina Rodent chow (#5002) with or without MDL compound as a dietary admixture for 4 days. Make dietary admixtures (0.3%) by mixing 1.2 grams of an MDL compound with 400 grams of Purina rodent chow (#5002). Mix the MDL compound with approximately 50 grams of food using a mortar and pestle. This is added to the remainder of the food and mixed for 3 hours on a rotary mixer. In the morning of day 5, anesthetize non-fasted rats with carbon dioxide, and collect blood by cardiac puncture. Sacrifice rats by cervical dislocation. Record body weights and liver weights in grams. Record food consumption as grams·day^-1 ·rat^-1. Deaths are recorded as mortality. Use aliquots of fresh serum for clinical chemistries, thiobarbituric acid reactive substances (TBARS) and conjugated diene measurements. Freeze aliquots of serum (~0.5 mL) and whole livers at -20° C. for compound and metabolite concentration determination at a later time.
Determine serum and liver concentrations of parent compound and the metabolites, bisphenol and diphenoquinone, by reverse phase HPLC using a Waters 990 Powerline system. Homegenize livers (1 gram samples) with 5.0 mL PBS, pH 7.4, using a Polytron tissue homogenizer at setting 5 for 20-30 seconds. Extract serum or liver homogenates as follows: add 100 μL of either serum or homogenate to 2.0 mL diethyl ether:ethanol (3:1) while vortexing the tube. Cap the sample tubes and centrifuge for 10 min at 5° C. at 3500 rpm in a Beckman GPKR centrifuge with a GH 3.7 rotor. Transfer the supernatants to clean tubes and dry under N2. Reconstitute samples with 200 μL of acetonitrile:hexane:0.1 M ammonium acetate (90:6.5:3.5, by vol.). Then, inject 100 μL onto a Waters Deltapak C18-300 Å column, and elute with an 83% acetonitrile:17% water mobile phase at a flow rate of 1.5 mL/min. Record absorbances at the wavelengths of 240, 254, and 420nm. Calculate compound concentrations from known quantities of authentic parent compounds after correction for recovery. […]. Calculate concentrations as μg/mL of serum and μg/g of liver.

[2] = Animal parameters (food, body weight, liver weight, mortality) in male Sprague-Dawley rats; type: in vivo; conditions: for mortality at 96 h: po, read-out: mortality (deaths per group)
From the text: as §1

[3] = system: oxidation of serum lipids; assay: TBARS assay (oxidation of serum lipids) in male Sprague-Dawley rats; type: in vivo; conditions: feed or water, 96 h, rat serum, 4 days, N = 5, CuSO4-initiated, 3 hr, read-out: TBARS, percent of control
Procedure: as §1, with “Some of the compounds are either repeated at 0.3% or evaluated again at the lower dose of 0.1%. House Male Sprague-Dawley rats, 50-100 g, (Harlan Laboratories, Indianapolis, Ind.) in groups of 5, feeding ad libitum water and Purina Rodent chow (#5002) with or without MDL compound as a dietary admixture for 4 days. Make dietary admixtures (0.3%) by mixing 1.2 grams of an MDL compound with 400 grams of Purina rodent chow (#5002).” left out
In this assay the oxidation of serum lipids is initiated with CuSO4, resulting in the formation of aldehydes, such as malondialdehyde (MDA). Upon incubation with thiobarbituric acid, the absorbance of the aldehydes can be detected at 530-540 nm. […] Measure TBARS as follows: mix 100 μL of serum with 400 μL of a 5 mmol CuSO4 solution and incubate at 37° C. for 3 hr. Stop the reactions by addition of 1.0 mL of 20% trichloroacetic acid. […] Centrifuge samples briefly to pellet undissolved material, and transfer the supernatants to a 96-well microtiter plate. Measure absorbances at 540 nm using a Biotek model EL311 microplate reader. The nmoles of MDA produced are calculated from a standard curve of 0 to 10 nmoles of MDA prepared from malonaldehyde bis(dimethylacetal). Serum samples from treated rats are compared to serum samples from control rats that received no MDL compound.

Male Sprague-Dawley Rats = assay: Serum clinical chemistries in male Sprague-Dawley rats; type: in vivo
Procedure: Measurement of Antioxidant Activity and Bioavailability of Compounds of Formula (1) By In Vivo Screening in Male Sprague-Dawley Rats
as §1, with “Some of the compounds are either repeated at 0.3% or evaluated again at the lower dose of 0.1%. House Male Sprague-Dawley rats, 50-100 g, (Harlan Laboratories, Indianapolis, Ind.) in groups of 5, feeding ad libitum water and Purina Rodent chow (#5002) with or without MDL compound as a dietary admixture for 4 days. Make dietary admixtures (0.3%) by mixing 1.2 grams of an MDL compound with 400 grams of Purina rodent chow (#5002).” left out
Allow blood to clot at room temperature for 30 minutes. Obtain serum after centrifugation for 10 min at 4° C. at 3000 rpm in a Beckman J-6M/E centrifuge with a JS-4.2 rotor. […] Calculate ALP, ALT, and AST as units/L. Calculate cholesterol, triglycerides, and glucose as mg/dL.

[4] = mean N = 5, read-out: Serum Parent (parent compound concentration)
[5] = in vivo, rat, 0.3% in diet, 4 days, N = 5
[6] = rat serum, 0.3% in diet, 4 days, N = 5
[7] = rat, 0.3% in diet, 4 days, N = 5
[8] = mean N = 5, read-out: Liver Parent (parent compound concentration)

| SMILES | Liver Bis (bisphenol concentration) [1] | Liver Quin (diphenoquinone concentration) [1] | Serum Bis (bisphenol concentration) [1] | Serum Quin (diphenoquinone concentration) [1] | concentration at 96 h [1, 4] | food (grams eaten per day per rat), percent of control ([2]; in vivo) | mortality at 96 h [2, 5] | body wt., percent of control ([2]; rat, in vivo) | response vs control in vivo at 0.3 % in diet [3] | ALP (alkaline phosphatase), percent of control (Male Sprague-Dawley Rats; [6]) | ALT (alanine aminotransferase), percent of control (Male Sprague-Dawley Rats; [6]) | AST (aspartate aminotransferase), percent of control (Male Sprague-Dawley Rats; [6]) | GLUC (glucose), percent of control (Male Sprague-Dawley Rats; rat, in vivo) | food (grams eaten per day per rat), percent of control ([2]; 0.3% in diet, 4 days, N = 5) | body wt., percent of control [2, 7] | concentration at 96 h [1, 8] | other results |
| --- | --- | --- | --- | --- | --- | --- | --- | --- | --- | --- | --- | --- | --- | --- | --- | --- | --- |
| CC(C)=CCC[C@H](C)CCOc1ccc(O)c(C(C)(C)C)c1 [103,649] | 0 | 0 | 0 | 0 | 1400 ng/mL | 95% | 0% | 94% | 29% | 74% | 119% | 82% | 101% |  |  |  | Liver Parent (parent compound concentration) [1]: 0; response vs control in vivo at 0.3 % in diet (Male Sprague-Dawley Rats; Rattus norvegicus, feed or water, 96 h, read-out: TRIG (triglycerides), percent of control): 143% |
| CC(C)=CCC[C@H](C)CCSc1ccc(O)c(C(C)(C)C)c1 [103,714] | 0 | 0 | 0 | 0 | 2700 ng/mL |  | 0% |  | 21% | 111% | 120% | 104% | 95% | 102% | 103% |  | Liver Parent (parent compound concentration) [1]: 0 |
| CC(C)=CCCC(C)CCSc1cc(C(C)(C)C)c(O)c(C(C)(C)C)c1 (centres unmarked) [103,960] |  | 0 | 0 | 0 | 8700 ng/mL | 105% | 0% |  | 24% | 125% | 117% |  | 110% |  | 100% | 47300 ng/g | lw/bw (liver weight/body weight), percent of control [2, 7]: 130%; AST (aspartate aminotransferase), percent of control (Male Sprague-Dawley Rats; rat, in vivo): 102% |
| CC(C)CCCC(C)CCOc1cc(C(C)(C)C)c(O)c(C(C)(C)C)c1 (centres unmarked) [104,102] | 0 | 0 | 0 | 0 | 32800 ng/mL |  | 0% |  | 71% |  | 114% | 82% | 98% | 92% | 97% | 481000 ng/g | ALP (alkaline phosphatase), percent of control (Male Sprague-Dawley Rats; rat, in vivo): 101% |
| CC(C)CCCC(C)CCOc1ccc(O)c(C(C)(C)C)c1 (centres unmarked) [104,191] | 0 | 0 | 0 | 0 | 6900 ng/mL | 76% | 0% | 92% | 20% | 81% | 149% | 146% | 106% |  |  | 16100 ng/g |  |
| CC(CCCC(C)(C)O)CCSc1cc(C(C)(C)C)c(O)c(C(C)(C)C)c1 (centres unmarked) [104,487] |  | 0 | 0 | 0 | 4100 ng/mL |  | 0% |  | 87% | 137% | 129% | 124% |  | 90% | 95% | 3800 ng/g | GLUC (glucose), percent of control (Male Sprague-Dawley Rats; [6]): 92% |
| CC(C)=CCC[C@@H](C)CCOc1cc(C(C)(C)C)c(O)c(C(C)(C)C)c1 [104,535] | 0 | 0 | 0 | 0 | 16300 ng/mL | 95% | 0% | 102% | 11% | 151% | 108% |  |  |  |  | 60300 ng/g | GLUC (glucose), percent of control (Male Sprague-Dawley Rats; [6]): 112%; AST (aspartate aminotransferase), percent of control (Male Sprague-Dawley Rats; rat, in vivo): 94% |
